The source of these data is patent publication US4704395A, “Cyclic ether esters of 2-substituted-6-(substituted and unsubstituted) dihydrolysergic acid useful as 5HT receptor antagonists” (Eli Lilly and Company, priority 1985, dated 1987).

In this test the target is T1, 5HT2 receptors (Rattus norvegicus, UniProt P14842).
T1 construct: their external jugular veins and thoracic aortas dissected free of connective tissue; from tissue; host or cells: external jugular vein of male Wistar rats
T1 sequence (P14842 whole entry): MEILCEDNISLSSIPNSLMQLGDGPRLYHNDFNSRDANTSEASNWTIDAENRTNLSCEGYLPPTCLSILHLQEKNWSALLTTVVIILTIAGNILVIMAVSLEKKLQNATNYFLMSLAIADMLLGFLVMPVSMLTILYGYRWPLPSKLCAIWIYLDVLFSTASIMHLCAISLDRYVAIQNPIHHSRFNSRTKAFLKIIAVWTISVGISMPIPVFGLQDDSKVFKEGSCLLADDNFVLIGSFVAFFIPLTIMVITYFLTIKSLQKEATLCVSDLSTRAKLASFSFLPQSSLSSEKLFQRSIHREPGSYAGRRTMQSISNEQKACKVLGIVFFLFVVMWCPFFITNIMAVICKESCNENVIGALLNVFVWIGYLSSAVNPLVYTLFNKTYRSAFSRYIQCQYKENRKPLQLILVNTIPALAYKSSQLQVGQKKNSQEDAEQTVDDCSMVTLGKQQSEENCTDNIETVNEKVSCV
Nature of the test: Apparent dissociation constants (KB) for 5HT2 receptors determined in the rat jugular vein (antagonism of serotonin contraction). The note with it: antagonist incubated one hour, 37° C., maleate salt, read-out: Apparent Dissociation Constants for 5HT2 receptors, -Log Kb ± S.E. (converted). The protocol:
An initial optimum resting force of 1 and 4 g was applied to the jugular vein and aorta, respectively. […] Exp. Ther., 205, 400 (1978). Alpha receptor antagonist activity was evaluated in the aorta.
As to `CC(C)n1cc2c3c(cccc31)[C@H]1C[C@@H](C(=O)OCCCC3CCCO3)CN(C)[C@@H]1C2` (stereo partly shown), the Kb was 5.62 nM.

`CC(C)n1cc2c3c(cccc31)[C@H]1C[C@@H](C(=O)OCC3CCCO3)CN(C)[C@@H]1C2` (stereo partly shown): the Kb is 6.31 nM.

Regarding `CC(C)n1cc2c3c(cccc31)[C@H]1C[C@@H](C(=O)OCC3CCCCO3)CN(C)[C@@H]1C2` (stereo partly shown), the Kb is 1.91 nM.

As to `CC(C)n1cc2c3c(cccc31)[C@H]1C[C@@H](C(=O)OC3CCOCC3)CN(C)[C@@H]1C2`, the Kb was 0.129 nM.
